Measurements taken from ChEMBL document CHEMBL5465560, “Selectivity Literature for EUbOPEN Chemogenomic Library” (2024).

How the values were obtained:
[1] = biological target: SRSF protein kinase 2 (Homo sapiens) (UniProt P78362); assay: Selectivity interaction (Upstate Kinase Profiler service (Millipore)) EUB0000056c SRPK2; conditions: at 1 µM
[2] = biological target: Serine/threonine-protein kinase PAK 4 (Homo sapiens, UniProt O96013); assay: Selectivity interaction (KinomeScan (DiscoverX)) EUB0001079a PAK4; conditions: at 1 µM
Sequence of Serine/threonine-protein kinase PAK 4 (O96013 whole entry, looked up): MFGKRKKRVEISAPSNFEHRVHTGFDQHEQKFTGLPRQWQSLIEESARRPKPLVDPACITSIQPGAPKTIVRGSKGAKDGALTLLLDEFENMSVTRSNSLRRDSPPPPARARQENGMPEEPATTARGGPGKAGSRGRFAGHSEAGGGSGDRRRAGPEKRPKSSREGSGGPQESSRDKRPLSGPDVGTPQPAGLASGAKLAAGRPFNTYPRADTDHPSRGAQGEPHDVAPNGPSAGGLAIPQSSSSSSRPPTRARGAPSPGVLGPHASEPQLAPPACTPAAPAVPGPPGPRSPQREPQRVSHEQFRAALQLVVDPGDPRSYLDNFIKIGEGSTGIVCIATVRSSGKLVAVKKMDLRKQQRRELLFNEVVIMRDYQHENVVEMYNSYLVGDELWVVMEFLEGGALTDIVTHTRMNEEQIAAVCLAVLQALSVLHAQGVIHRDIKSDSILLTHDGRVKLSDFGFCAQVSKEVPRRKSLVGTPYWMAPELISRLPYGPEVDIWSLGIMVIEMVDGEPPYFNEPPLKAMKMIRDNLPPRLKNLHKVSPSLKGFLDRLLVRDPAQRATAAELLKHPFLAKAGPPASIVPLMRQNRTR

[3] = biological target: T1, Serine/threonine-protein kinase 3 (Homo sapiens) (UniProt Q13188); assay: Selectivity interaction (Kinase panel (KiNativ target engagement assay in Jurkat cells)) EUB0001635a STK3; assay type: cell-based; conditions: Selectivity number of off-targets 0.0, Selectivity number of targets 233.0, Source Knowledge https://www.sciencedirect.com/science/article/pii/S2451945619300674?via%3Dihub, at 1 µM
T1 sequence (whole entry): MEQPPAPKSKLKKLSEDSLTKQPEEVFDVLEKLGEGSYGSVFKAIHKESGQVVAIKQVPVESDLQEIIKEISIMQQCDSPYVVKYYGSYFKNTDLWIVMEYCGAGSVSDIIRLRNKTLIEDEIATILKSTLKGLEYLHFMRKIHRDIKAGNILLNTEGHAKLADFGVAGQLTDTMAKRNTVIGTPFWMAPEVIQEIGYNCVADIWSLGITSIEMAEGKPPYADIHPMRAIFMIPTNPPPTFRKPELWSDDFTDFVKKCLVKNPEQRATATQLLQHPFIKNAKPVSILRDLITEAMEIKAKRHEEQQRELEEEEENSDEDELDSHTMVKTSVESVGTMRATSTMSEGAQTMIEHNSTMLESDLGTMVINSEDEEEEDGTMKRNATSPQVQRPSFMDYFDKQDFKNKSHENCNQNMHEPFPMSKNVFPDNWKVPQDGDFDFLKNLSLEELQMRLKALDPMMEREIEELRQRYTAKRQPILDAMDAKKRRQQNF

[4] = biological target: T2, cGMP-dependent protein kinase 2 (Homo sapiens) (UniProt Q13237); assay: Selectivity interaction (Kinase panel (Z-LYTE Assay)) EUB0001632a PRKG2; conditions: at 10 µM
T2 sequence (whole entry): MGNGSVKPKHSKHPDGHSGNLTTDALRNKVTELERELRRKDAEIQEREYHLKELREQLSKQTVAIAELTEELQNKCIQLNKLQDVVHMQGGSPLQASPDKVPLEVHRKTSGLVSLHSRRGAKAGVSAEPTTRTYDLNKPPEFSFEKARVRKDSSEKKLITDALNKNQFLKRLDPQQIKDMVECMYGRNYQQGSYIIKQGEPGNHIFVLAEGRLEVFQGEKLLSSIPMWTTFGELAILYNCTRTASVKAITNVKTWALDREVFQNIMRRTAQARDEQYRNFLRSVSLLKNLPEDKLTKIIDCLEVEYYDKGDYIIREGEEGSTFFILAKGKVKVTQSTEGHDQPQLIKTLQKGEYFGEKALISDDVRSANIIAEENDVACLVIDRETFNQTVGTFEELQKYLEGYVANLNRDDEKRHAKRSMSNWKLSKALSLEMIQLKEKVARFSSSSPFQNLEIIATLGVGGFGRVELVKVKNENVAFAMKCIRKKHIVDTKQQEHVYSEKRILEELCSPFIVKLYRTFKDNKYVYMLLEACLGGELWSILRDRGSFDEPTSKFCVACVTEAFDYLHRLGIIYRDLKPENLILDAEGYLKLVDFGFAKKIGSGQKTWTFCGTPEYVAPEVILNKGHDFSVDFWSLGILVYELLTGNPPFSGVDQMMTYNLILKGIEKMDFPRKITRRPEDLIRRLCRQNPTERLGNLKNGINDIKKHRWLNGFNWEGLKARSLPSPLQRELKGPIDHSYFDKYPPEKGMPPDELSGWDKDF

[5] = biological target: T3, Mitogen-activated protein kinase 15 (Homo sapiens) (UniProt Q8TD08); assay: Selectivity interaction (Kinase panel (literature)) EUB0001199aCl MAPK15; conditions: at 1 µM
T3 sequence (whole entry): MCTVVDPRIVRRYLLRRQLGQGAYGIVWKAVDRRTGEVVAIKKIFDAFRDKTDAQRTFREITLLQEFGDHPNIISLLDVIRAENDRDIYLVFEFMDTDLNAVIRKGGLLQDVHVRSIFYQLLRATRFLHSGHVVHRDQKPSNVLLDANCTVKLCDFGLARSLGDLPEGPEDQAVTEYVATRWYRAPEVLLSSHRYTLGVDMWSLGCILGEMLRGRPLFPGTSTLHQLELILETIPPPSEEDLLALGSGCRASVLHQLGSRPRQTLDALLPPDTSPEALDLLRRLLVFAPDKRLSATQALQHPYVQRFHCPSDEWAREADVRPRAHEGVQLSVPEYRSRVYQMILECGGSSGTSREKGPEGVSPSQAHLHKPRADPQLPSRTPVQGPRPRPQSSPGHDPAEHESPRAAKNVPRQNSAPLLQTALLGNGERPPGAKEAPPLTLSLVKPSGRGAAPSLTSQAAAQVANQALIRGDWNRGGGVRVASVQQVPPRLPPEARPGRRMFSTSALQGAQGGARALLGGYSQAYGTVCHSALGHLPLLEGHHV

[6] = biological target: Dual specificity mitogen-activated protein kinase kinase 2 (Homo sapiens) (UniProt P36507); assay: Selectivity interaction (KinomeScan (DiscoverX)) EUB0000618a MAP2K2; conditions: at 10 µM
Sequence of Dual specificity mitogen-activated protein kinase kinase 2 (Homo sapiens) (P36507 whole entry): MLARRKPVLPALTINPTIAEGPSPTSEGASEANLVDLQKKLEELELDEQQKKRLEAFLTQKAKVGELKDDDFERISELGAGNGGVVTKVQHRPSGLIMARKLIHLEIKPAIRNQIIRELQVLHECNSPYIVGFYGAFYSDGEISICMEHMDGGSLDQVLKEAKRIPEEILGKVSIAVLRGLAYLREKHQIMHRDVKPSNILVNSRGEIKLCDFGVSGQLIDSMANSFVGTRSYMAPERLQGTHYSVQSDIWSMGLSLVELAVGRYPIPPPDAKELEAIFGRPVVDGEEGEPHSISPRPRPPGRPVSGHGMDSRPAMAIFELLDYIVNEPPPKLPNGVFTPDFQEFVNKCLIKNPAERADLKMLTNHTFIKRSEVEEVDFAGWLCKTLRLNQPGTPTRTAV

[7] = biological target: Bone morphogenetic protein receptor type-1B (Homo sapiens, UniProt O00238); assay: Selectivity interaction (KinomeScan (DiscoverX)) EUB0001619a BMPR1B; conditions: at 1 µM
Sequence of Bone morphogenetic protein receptor type-1B (O00238 whole entry): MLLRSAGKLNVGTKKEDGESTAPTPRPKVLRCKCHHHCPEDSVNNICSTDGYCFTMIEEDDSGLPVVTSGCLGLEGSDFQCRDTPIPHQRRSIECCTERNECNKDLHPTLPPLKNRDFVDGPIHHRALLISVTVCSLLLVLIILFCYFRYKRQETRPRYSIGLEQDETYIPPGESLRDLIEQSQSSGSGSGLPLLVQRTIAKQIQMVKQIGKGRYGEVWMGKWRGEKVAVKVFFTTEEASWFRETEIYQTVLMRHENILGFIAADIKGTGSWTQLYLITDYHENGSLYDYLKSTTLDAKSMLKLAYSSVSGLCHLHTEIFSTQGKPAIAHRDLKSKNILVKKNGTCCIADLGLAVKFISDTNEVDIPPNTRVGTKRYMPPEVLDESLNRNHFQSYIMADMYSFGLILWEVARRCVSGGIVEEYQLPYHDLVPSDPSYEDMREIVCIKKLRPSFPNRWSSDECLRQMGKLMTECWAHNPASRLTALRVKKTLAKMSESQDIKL

Sequence of SRSF protein kinase 2 (Homo sapiens) (P78362 whole entry, looked up): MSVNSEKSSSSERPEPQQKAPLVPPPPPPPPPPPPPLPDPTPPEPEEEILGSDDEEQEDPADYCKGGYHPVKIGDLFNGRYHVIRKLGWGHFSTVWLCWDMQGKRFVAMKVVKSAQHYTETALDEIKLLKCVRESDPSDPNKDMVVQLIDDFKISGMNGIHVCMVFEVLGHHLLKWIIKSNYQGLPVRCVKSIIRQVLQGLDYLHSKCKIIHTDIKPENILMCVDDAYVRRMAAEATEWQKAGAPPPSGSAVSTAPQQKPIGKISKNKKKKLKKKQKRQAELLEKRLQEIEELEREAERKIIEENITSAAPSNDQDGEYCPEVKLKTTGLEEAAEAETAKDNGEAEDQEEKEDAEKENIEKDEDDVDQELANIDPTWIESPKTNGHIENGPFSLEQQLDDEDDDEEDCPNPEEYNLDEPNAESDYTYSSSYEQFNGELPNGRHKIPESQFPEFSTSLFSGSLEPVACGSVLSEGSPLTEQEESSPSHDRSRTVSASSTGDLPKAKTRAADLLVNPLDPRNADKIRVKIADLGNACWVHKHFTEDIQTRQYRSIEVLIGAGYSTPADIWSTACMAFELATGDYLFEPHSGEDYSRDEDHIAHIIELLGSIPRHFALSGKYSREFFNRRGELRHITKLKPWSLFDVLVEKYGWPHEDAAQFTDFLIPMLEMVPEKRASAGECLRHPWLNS

Question: How did the % of inhibition [1] turn out when `Cc1ccc(-c2ccc3c(ccc4sc5c(c43)NC[C@@H](C)NC5=O)n2)cn1` was run?
Answer: The % of inhibition was 33%.

Question: `Nc1cnc(N2CCc3cc(S(=O)(=O)Nc4c(F)cc(Cl)cc4F)cc(N4CCCC4=O)c32)nc1` [TP-020n] was tested. Which % of control [2] did it give?
Answer: Its % of control is 89%.

Question: How did the % of engagement [3] turn out when `C=CC(=O)Nc1ccc(C(=O)Nc2[nH]nc3c2CN(C(=O)N[C@H](CN(C)C)c2ccccc2)C3(C)C)cc1` was run?
Answer: The % of engagement was 1%.

Question: With `Cn1cc(-n2cnc3c(NCc4nc5cc(Cl)c(Cl)cc5[nH]4)nc(N4CCOCC4)nc32)cn1` as the compound, how does the % of control [4] read?
Answer: The % of control was -2.3%.

Question: For `CN1Cc2nccc(-c3cn(C)nc3-c3ccc(F)cc3)c2C1=O`, which % of inhibition [5] is on record?
Answer: Its % of inhibition is 10%.

Question: `O[C@H]1CC[C@H](Nc2ncc3nc(Nc4c(F)cc(F)cc4F)n([C@H]4CCOC4)c3n2)CC1` was tested. Which % of control [6] did it give?
Answer: Its % of control is 100%.

Question: Which % of control [7] does the source give for `N#Cc1cccc(-c2c[nH]c3ncnc(N4CCOCC4)c23)c1` here?
Answer: The % of control was 31%.
